The record followed here is patent US20230406843A1, “Progranulin Modulators and Methods of Using the Same” (ARKUDA THERAPEUTICS, priority 2020, published 2023).

Molecules are shown by their SMILES. pEC50: −log10 of the molar value.

The first test deals with progranulin. In words: Progranulin induction cellular assay (ELISA of secreted mouse PGRN). In kind it is cell-based. The settings on record: Mus musculus, BV-2, read-out: EC50 μM. An outline of the steps:
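Mouse primary microglia, primary cortical neurons and BV-2 cells are used. BV-2 cells are plated in 96-well format the day before, with a 1 h attachment and 16 h incubation. Progranulin secreted into the medium is quantified by ELISA.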
A general note: An ELISA detects its analyte on a solid surface through an enzyme-linked reagent.
For orientation: EC50 means the concentration giving half of the maximal effect. On to `COC[C@@]1(N)CC[C@@H](C(=O)N2CCc3ccccc3[C@@H]2c2ccc(F)cc2)OC1` [Compound 5217, ((2S,5S)-5-amino-5-(methoxymethyl)tetrahydro-2H-pyran-2-yl)((S)-1-(4-fluorophenyl)-3,4-dihydroisoquinolin-2(1H)-yl)methanone], for which the EC50 is 0.226 µM.

As to `C=CCO[C@H]1CO[C@@H](C(=O)N2CCc3ccccc3[C@@H]2c2ccc(F)cc2)C[C@@H]1N` [Compound 5476, ((2R,4S,5R)-5-(allyloxy)-4-aminotetrahydro-2H-pyran-2-yl)((S)-1-(4-fluorophenyl)-3,4-dihydroisoquinolin-2(1H)-yl)methanone], the EC50 was 0.001 µM.

Still in this test, the particulars now being: progranulin induction assay; mouse pMG, primary cortical neurons and BV-2 cell lines named, cell type not given; ELISA-based readout; read-out: EC50.
As usually defined, the pEC50 is the EC50 on a negative log10 scale, so that one unit is a factor of ten. On to `N[C@H]1CO[C@H](C(=O)N2CCc3ccccc3[C@@H]2c2ccc(F)cc2)CC1(F)F` [Compound 5060, ((2S,5S)-5-amino-4,4-difluorotetrahydro-2H-pyran-2-yl)((S)-1-(4-fluorophenyl)-3,4-dihydroisoquinolin-2(1H)-yl)methanone], for which the pEC50 was 5.23.

In the case of `CO[C@H]1CO[C@@H](C(=O)N2CCc3ccccc3[C@@H]2c2ccc(F)cc2)C[C@@H]1N` [Compound 5077, ((2R,4S,5R)-4-amino-5-methoxytetrahydro-2H-pyran-2-yl)((S)-1-(4-fluorophenyl)-3,4-dihydroisoquinolin-2(1H)-yl)methanone], the pEC50 was 8.52. Same read-out and setting: under `O=C([C@H]1C[C@@H]2NCC(CO)O[C@H]2CO1)N1CCc2ccccc2[C@@H]1c1ccc(F)cc1` (single isomer, unassigned) [Compound 5535] stands 7.55. `CO[C@H]1CO[C@@H](C(=O)N2CCc3ccccc3[C@@H]2c2ccc(F)cc2)C[C@@H]1NCCC(F)(F)F` [Compound 5570]: the pEC50 is 6.63.

In the case of `N[C@@H]1CC[C@H](C(=O)N2CCc3ccccc3[C@@H]2c2ccc(F)cc2)OC1` (single isomer, unassigned) [Compound 5017], the pEC50 was 7.04. The same measure, in the same setting: under `N[C@@H]1CO[C@@H](C(=O)N2CCc3ccccc3[C@@H]2c2ccc(F)cc2)C[C@H]1O` [Compound 5057, ((2R,4R,5R)-5-amino-4-hydroxytetrahydro-2H-pyran-2-yl)((S)-1-(4-fluorophenyl)-3,4-dihydroisoquinolin-2(1H)-yl)methanone] stands 6.88; under `C[S@](=N)(=O)[C@H]1CO[C@@H](C(=O)N2CCc3ccccc3[C@@H]2c2ccc(F)cc2)C[C@@H]1N` (single isomer, unassigned) [Compound 5548], 7.15. As to `O=C([C@@H]1OCCNC[C@@H]1O)N1CCc2ccccc2[C@@H]1c1ccc(F)cc1` [Compound 5243, ((S)-1-(4-fluorophenyl)-3,4-dihydroisoquinolin-2(1H)-yl)((6S,7R)-6-hydroxy-1,4-oxazepan-7-yl)methanone], the pEC50 was 6.70. The same measure, in the same setting: as for `CC(C)(C)O[C@H]1CO[C@@H](C(=O)N2CCc3ccccc3[C@@H]2c2ccc(F)cc2)C[C@@H]1N` [Compound 5511, ((2R,4S,5R)-4-amino-5-(tert-butoxy)tetrahydro-2H-pyran-2-yl)((S)-1-(4-fluorophenyl)-3,4-dihydroisoquinolin-2(1H)-yl)methanone], the figure is 9.70; as for `N[C@H]1C[C@H](C(=O)N2CCc3ccccc3[C@@H]2c2ccc(F)cc2)OC[C@H]1O` [Compound 5051, ((2R,4S,5S)-4-amino-5-hydroxytetrahydro-2H-pyran-2-yl)((S)-1-(4-fluorophenyl)-3,4-dihydroisoquinolin-2(1H)-yl)methanone], 8.22; as for `CS(=O)(=O)N[C@@H]1CO[C@@H](C(=O)N2CCc3ccccc3[C@@H]2c2ccc(F)cc2)C[C@@H]1N` [Compound 5428, N-((3S,4S,6R)-4-amino-6-((S)-1-(4-fluorophenyl)-1,2,3,4-tetrahydroisoquinoline-2-carbonyl)tetrahydro-2H-pyran-3-yl)methanesulfonamide], below 5.00. Consider `NC[C@@H]1CC[C@H](C(=O)N2CCc3ccccc3[C@@H]2c2ccc(F)cc2)O1` [Compound 5000, ((2R,5S)-5-(aminomethyl)tetrahydrofuran-2-yl)((S)-1-(4-fluorophenyl)-3,4-dihydroisoquinolin-2(1H)-yl)methanone], for which the pEC50 is 6.39. The same measure, in the same setting: as for `CC[N-][S@+2](C)([O-])[C@H]1CO[C@@H](C(=O)N2CCc3ccccc3[C@@H]2c2ccc(F)cc2)C[C@@H]1N` (single isomer, unassigned) [Compound 5558], the figure is 6.51; as for `COCCN[C@H]1CC[C@H](C(=O)N2CCc3ccccc3[C@@H]2c2ccc(F)cc2)OC1` [Compound 5030, ((S)-1-(4-fluorophenyl)-3,4-dihydroisoquinolin-2(1H)-yl)((2R,5S)-5-((2-methoxyethyl)amino)tetrahydro-2H-pyran-2-yl)methanone], 6.46. As for `N=[S@]1(=O)CCN[C@H]2C[C@H](C(=O)N3CCc4ccccc4[C@@H]3c3ccc(F)cc3)OC[C@@H]21` (single isomer, unassigned) [Compound 5554], the pEC50 was 5.31.

With `N[C@H]1CO[C@@H](C(=O)N2CCc3ccccc3[C@@H]2c2ccc(F)cc2)OC1` [Compound 5049, (cis-5-amino-1,3-dioxan-2-yl)((S)-1-(4-fluorophenyl)-3,4-dihydroisoquinolin-2(1H)-yl)methanone], the pEC50 is 6.59. Regarding `C[C@@H]1CO[C@@H](C(=O)N2CCc3ccccc3[C@@H]2c2ccc(F)cc2)C[C@@H]1N` [Compound 5519, ((2R,4S,5S)-4-amino-5-methyltetrahydro-2H-pyran-2-yl)((S)-1-(4-fluorophenyl)-3,4-dihydroisoquinolin-2(1H)-yl)methanone], the pEC50 was 7.39.

With `N[C@H]1C[C@H](C(=O)N2CCc3ccccc3[C@@H]2c2ccc(F)cc2)OC[C@@H]1Oc1ccccc1` [Compound 5527, ((2R,4S,5R)-4-amino-5-phenoxytetrahydro-2H-pyran-2-yl)((S)-1-(4-fluorophenyl)-3,4-dihydroisoquinolin-2(1H)-yl)methanone], the negative logarithm of the EC50 (pEC50) is 6.56. On to `CO[C@H]1C[C@H](C(=O)N2CCc3ccccc3[C@@H]2c2ccc(F)cc2)OC[C@H]1N` (single isomer, unassigned) [Compound 5082], for which the negative logarithm of the EC50 (pEC50) was 7.36. The same measure, in the same setting: under `CS[C@H]1CO[C@@H](C(=O)N2CCc3ccccc3[C@@H]2c2ccc(F)cc2)C[C@@H]1N` [Compound 5520, ((2R,4S,5R)-4-amino-5-(methylthio)tetrahydro-2H-pyran-2-yl)((S)-1-(4-fluorophenyl)-3,4-dihydroisoquinolin-2(1H)-yl)methanone] stands 8.40. Consider `O=C([C@H]1CCNCCO1)N1CCc2ccccc2[C@@H]1c1ccc(F)cc1F` (single isomer, unassigned) [Compound 5263], for which the negative logarithm of the EC50 (pEC50) is 7.11. The same measure, in the same setting: under `O=C([C@H]1C[C@@H]2NCCO[C@@H]2CO1)N1CCc2ccccc2[C@@H]1c1ccc(F)cc1` [Compound 5448, ((S)-1-(4-fluorophenyl)-3,4-dihydroisoquinolin-2(1H)-yl)((4aS,7R,8aS)-octahydropyrano[3,4-b][1,4]oxazin-7-yl)methanone] stands 7.36; under `NC[C@]1(O)CC[C@@H](C(=O)N2CCc3ccccc3[C@@H]2c2ccc(F)cc2)OC1` (single isomer, unassigned) [Compound 5046], 7.21.
